Assays:
Assay type in all cases: in vivo
[1] = system: Giant foxtail (Setaria fabergi); experiment: Example 24, Procedure II: Herbicide No. 1 + co-herbicides Nos. 4, 6, 7, 12 with Antidote Nos. 15 and 17-21
Description: (§1) Containers were filled and compacted with a fumigated silt loam top soil to a depth of about 1.3 cm from the top of the container. A first container was designated as an untreated control, a second container was designated as a herbicide control, and a third container was designated as a herbicide + antidote test container. Each of the containers was seeded with a crop species. A measured amount of herbicide dispersed or dissolved in acetone was applied to a measured quantity of soil. To this same quantity of soil treated with herbicide, there was added a measured amount of antidote dispersed or dissolved in acetone. The quantity of soil treated with the herbicide and antidote was thoroughly mixed to incorporate the herbicide and antidote in the soil uniformly. The seed bed in the third container of soil was covered with the soil treated with the herbicide and antidote and the container was leveled. For each test series, the seed beds of the first and second containers were likewise covered by soil layers. the cover layer of the first container was not treated with herbicide or antidote.
(§2) The containers were then placed on a bench in a greenhouse and sub-irrigated as required for the duration of the test. […] Plant response is measured in terms of percent injury. Antidote efficacy is indicated as the difference in plant injury by the herbicide(s) without the antidote and with the antidote.
(§3) This procedure is the same as Procedure I, but modified in the manner that after incorporation of the chemicals (herbicide and antidote) the containers with the covered seedbed were treated with an initial overhead irrigation equivalent to 0.6 cm rainfall, then subsequently sub-irrigated as required on greenhouse benches.
(§4) In other greenhouse tests, using Procedure II described above, the safening efficacy of Antidote Nos. 15 and 17-21 was evaluated against Herbicide No. 1 in corn in the presence of Giant foxtail (Setaria fabergi) and Velvetleaf (Abutilon theophrasti) as representative annual monocotyledonous and dicotyledonous weeds, respectively.
(§5) Test results are shown in Tables 23A and 23B wherein the indicated plant inhibition represents the average of duplicate replications, with observations being made thirteen (13) days after application of the chemicals. Giant foxtail and Velvetleaf are represented by the symbols "GFT" and "VL", respectively. The data in Table 23A show the test results using the antidotes at 2.24 kg/ha, whereas in Table 23B, the antidotal rate was reduced to 0.56 kg/ha.
(§6) The tests described in Example 23 were duplicated, but in this example a variety of co-herbicides were included to ascertain the efficacy of the antidotes against combinations of Herbicide No. 1 and Herbicides Nos. 4, 6, 7 and 12 as co-herbicides. Test results are shown in Table 24, wherein the antidote application rate was 2.24 kg/ha.

[2] = system: velvetleaf (Abutilon theophrasti); experiment: as above
Description: as §1, §2, §3, §4, §5, §6

corn = experiment: Example 19, Procedure II: Herbicide No. 1 + ERADICANE EXTRA with added antidotes
Description: as §1, §2, §3
In the test reported in this example, the herbicidal composition was similar to that used in Example 16 in that Herbicide No. 1 was combined with EPTC (Herbicide No. 4) as a co-herbicide and the antidotes included Nos. 1, 2, 7, 13 and 15. However, in this test the EPTC was introduced as a formulation of ERADICANE (EPTC + the antidote R-25788, i.e., Antidote No. 1) at an application rate of 8.96 kg/ha. Thus, in this test two antidotes were present, viz. R-25788 and one of the auxilliary antidotes, No. 2, 13 and 15.
The test reported in this example was performed in the same manner and with the same antidotes used in Example 18, the only difference being the substitution of the commercial herbicidal product ERADICANE® EXTRA for ERADICANE®. ERADICANE EXTRA is a formulation containing both an antidote, i.e., R-29148 (Antidote No. 5 herein), and an extender, dietholate.

[3] = Herb. No. 1 0.07 Kg/ha + Co-Herb. No. 4 1.12 Kg/ha + antidote 2.24 Kg/ha
[4] = Herb. No. 1 0.07 Kg/ha + Co-Herb. No. 6 0.14 Kg/ha + antidote 2.24 Kg/ha
[5] = Herb. No. 1 0.07 Kg/ha + Co-Herb. No. 7 0.28 Kg/ha + antidote 2.24 Kg/ha
[6] = Herb. No. 1 0.07 Kg/ha + Co-Herb. No. 12 0.28 Kg/ha + antidote 2.24 Kg/ha
[7] = Herb. No. 1 0.14 Kg/ha + Co-Herb. No. 4 1.12 Kg/ha + antidote 2.24 Kg/ha
[8] = Herb. No. 1 0.14 Kg/ha + Co-Herb. No. 6 0.14 Kg/ha + antidote 2.24 Kg/ha
[9] = Herb. No. 1 0.14 Kg/ha + Co-Herb. No. 7 0.28 Kg/ha + antidote 2.24 Kg/ha
[10] = Herb. No. 1 0.14 Kg/ha + Co-Herb. No. 12 0.28 Kg/ha + antidote 2.24 Kg/ha
[11] = Herb. No. 1 0.28 Kg/ha + Co-Herb. No. 4 1.12 Kg/ha + antidote 2.24 Kg/ha
[12] = Herb. No. 1 0.28 Kg/ha + Co-Herb. No. 6 0.14 Kg/ha + antidote 2.24 Kg/ha
[13] = Herb. No. 1 0.28 Kg/ha + Co-Herb. No. 7 0.28 Kg/ha + antidote 2.24 Kg/ha
[14] = Herb. No. 1 0.28 Kg/ha + Co-Herb. No. 12 0.28 Kg/ha + antidote 2.24 Kg/ha
[15] = Herb. No. 1 0.56 Kg/ha + Co-Herb. No. 4 1.12 Kg/ha + antidote 2.24 Kg/ha
[16] = Herb. No. 1 0.56 Kg/ha + Co-Herb. No. 6 0.14 Kg/ha + antidote 2.24 Kg/ha
[17] = Herb. No. 1 0.56 Kg/ha + Co-Herb. No. 7 0.28 Kg/ha + antidote 2.24 Kg/ha
[18] = Herb. No. 1 0.56 Kg/ha + Co-Herb. No. 12 0.28 Kg/ha + antidote 2.24 Kg/ha

Compound | % Inhibition GFT [1, 3] [%] | % Inhibition GFT [1, 4] [%] | % Inhibition GFT [1, 5] [%] | % Inhibition GFT [1, 6] [%] | % Inhibition GFT [1, 7] [%] | % Inhibition GFT [1, 8] [%] | % Inhibition GFT [1, 9] [%] | % Inhibition GFT [1, 10] [%] | % Inhibition GFT [1, 11] [%] | % Inhibition GFT [1, 12] [%] | % Inhibition GFT [1, 13] [%] | % Inhibition GFT [1, 14] [%] | % Inhibition GFT [1, 15] [%] | % Inhibition GFT [1, 16] [%] | % Inhibition GFT [1, 17] [%] | % Inhibition GFT [1, 18] [%] | % Inhibition VL [2, 3] [%] | % Inhibition VL [2, 4] [%] | % Inhibition VL [2, 5] [%] | % Inhibition VL [2, 6] [%] | also measured
CC1COc2ccccc2N1C(=O)C(Cl)Cl (stereo not drawn) [compound 17] | 55 | 100 | 100 | 99 | 50 | 100 | 100 | 99 | 45 | 98 | 100 | 98 | 70 | 99 | 99 | 100 | 90 | 90 | 85 | 90 | % Inhibition VL [2, 7]: 90%; % Inhibition VL [2, 8]: 90%; % Inhibition VL [2, 9]: 95%; % Inhibition VL [2, 10]: 98%; % Inhibition VL [2, 11]: 90%; % Inhibition VL [2, 12]: 95%; % Inhibition VL [2, 13]: 98%; % Inhibition VL [2, 14]: 98%; % Inhibition VL [2, 15]: 95%; % Inhibition VL [2, 16]: 98%; % Inhibition VL [2, 17]: 98%; % Inhibition VL [2, 18]: 95%
CCSC(=O)COC(c1ccccc1)c1ccccc1 [compound 21] | 65 | 100 | 100 | 100 | 60 | 100 | 100 | 99 | 65 | 99 | 98 | 100 | 70 | 100 | 100 | 99 | 90 | 85 | 95 | 90 | % Inhibition VL [2, 7]: 90%; % Inhibition VL [2, 8]: 90%; % Inhibition VL [2, 9]: 90%; % Inhibition VL [2, 10]: 95%; % Inhibition VL [2, 11]: 95%; % Inhibition VL [2, 12]: 95%; % Inhibition VL [2, 13]: 95%; % Inhibition VL [2, 14]: 98%; % Inhibition VL [2, 15]: 90%; % Inhibition VL [2, 16]: 98%; % Inhibition VL [2, 17]: 98%; % Inhibition VL [2, 18]: 98%
O=C(O)COC(c1ccccc1)c1ccccc1 [compound 18] | 65 | 100 | 99 | 100 | 55 | 99 | 99 | 99 | 70 | 99 | 100 | 100 | 65 | 100 | 100 | 99 | 90 | 90 | 90 | 80 | % Inhibition VL [2, 7]: 95%; % Inhibition VL [2, 8]: 95%; % Inhibition VL [2, 9]: 95%; % Inhibition VL [2, 10]: 99%; % Inhibition VL [2, 11]: 95%; % Inhibition VL [2, 12]: 95%; % Inhibition VL [2, 13]: 95%; % Inhibition VL [2, 14]: 95%; % Inhibition VL [2, 15]: 90%; % Inhibition VL [2, 16]: 98%; % Inhibition VL [2, 17]: 98%; % Inhibition VL [2, 18]: 95%
COC(=O)COC(c1ccccc1)c1ccccc1 [compound 20] | 65 | 100 | 98 | 99 | 40 | 99 | 98 | 100 | 65 | 100 | 100 | 100 | 65 | 100 | 99 | 100 | 90 | 95 | 95 | 90 | % Inhibition VL [2, 7]: 90%; % Inhibition VL [2, 8]: 90%; % Inhibition VL [2, 9]: 90%; % Inhibition VL [2, 10]: 95%; % Inhibition VL [2, 11]: 90%; % Inhibition VL [2, 12]: 98%; % Inhibition VL [2, 13]: 95%; % Inhibition VL [2, 14]: 98%; % Inhibition VL [2, 15]: 95%; % Inhibition VL [2, 16]: 95%; % Inhibition VL [2, 17]: 95%; % Inhibition VL [2, 18]: 98%
O=C(O)COC(c1ccccc1)c1ccccc1 [compound 19] | 40 | 100 | 99 | 99 | 60 | 100 | 99 | 99 | 45 | 99 | 99 | 100 | 70 | 99 | 99 | 99 | 90 | 90 | 90 | 85 | % Inhibition VL [2, 7]: 95%; % Inhibition VL [2, 8]: 95%; % Inhibition VL [2, 9]: 90%; % Inhibition VL [2, 10]: 85%; % Inhibition VL [2, 11]: 95%; % Inhibition VL [2, 12]: 95%; % Inhibition VL [2, 13]: 95%; % Inhibition VL [2, 14]: 95%; % Inhibition VL [2, 15]: 90%; % Inhibition VL [2, 16]: 99%; % Inhibition VL [2, 17]: 98%; % Inhibition VL [2, 18]: 99%
CC1(C)OC(c2ccco2)CN1C(=O)C(Cl)Cl (stereo not drawn) [Antidote No. 15, Oxazolidine, 3-(dichloroacetyl)-5-(2-furanyl)-2,2-dimethyl] |  |  |  |  |  |  |  |  |  |  |  |  |  |  |  |  |  |  |  |  | corn injury (corn; Herbicide No. 1 + ERADICANE EXTRA + added antidote, highest rates of antidotes and herbicides): 25%
COC(=O)c1c(Cl)nn(C)c1S(=O)(=O)NC(=O)Nc1nc(OC)cc(OC)n1 [No.1] |  |  |  |  |  |  |  |  |  |  |  |  |  |  |  |  |  |  |  |  | % Injury Corn (corn; Herbicide No.1 0.56 kg/ha + ERADICANE EXTRA 8.96 kg/ha, no added antidote): 30%; % Injury Corn (corn; Herbicide No.1 0.56 kg/ha alone): 20%; % Injury Corn (corn; Herbicide No.1 1.12 kg/ha + ERADICANE EXTRA 8.96 kg/ha, no added antidote): 20%; % Injury Corn (corn; Herbicide No.1 1.12 kg/ha alone): 25%

Reference: EP0603240B1, “SAFENING HERBICIDAL PYRAZOLYLSULFONYLUREAS” (priority 1991, dated 1993)
